# Measured values: US20020169101A1, “Treatment of sexual dysfunction” (priority 1999, published 2002)
# Experiments:
# [1] = tested on: sexual behaviour of normal male rats; test: Sexual behaviour of normal (sexually vigorous) male rats; type: in vivo, rat; conditions: Compound (1) 15 mg/kg or Fluoxetine 20 mg/kg i.p. 1 h before test
# Protocol: The potentially stimulatory effect of Compound (1) on male sexual behaviour has been tested on sexually vigorous rats. Sprague Dawley male rats (Charles River, UK) were kept, 4 rats per cage, in a reversed lighting regime (12:12 hours, lights off at 5.00 h), with free access to food and water. The rats were pre-selected by being presented with a receptive female at 4 days intervals, i.e. every third day (having 2 clear days between presentations) until completing 6-7 […] of baseline determination. The animals showing consistently vigorous behaviour (ejaculatory latencies <300s) were chosen for further experiments (n—24). Animals were randomised into three groups. All animals received all three treatments following a latin-square design. Treatments were administered once a week, with a baseline test in between treatments (4 days intervals between baseline and test day). Treatments were Compound (1) (15 mg/kg, dissolved in 50% 2-hydroxypropyl-β-cyclodextrin in saline), vehicle, or Fluoxetine (20 mg/kg dissolved in 100% DMSO). All treatments were administered i.p. in a 1 ml/kg volume, 1 h before tests.
# For all the sexual behaviour tests, the males were placed in an observation arena (50-60 cm diameter), starting 5 hours into the dark cycle and observed under red illumination. Three to 4 minutes after placing the male in the arena, a receptive female (ovariectomised, bearing a 7 mm Silastic implant of oestradiol benzoate) was introduced to the arena and the following parameters noted: Mount Latency: time (in seconds) taken between introduction of female and first mount. A maximum time of 15 minutes (900 seconds) was allowed, and the test terminated if no mounts were recorded within that time (FIG. 11), Intromission Latency: time (in seconds) taken between introduction of female and first intromission (FIG. 12), Number of Mounts: to reach ejaculation. When ejaculation was not reached, the number of mounts was not analyzed, Number of Intromissions: to reach ejaculation. When ejaculation was not reached, the number of intromissions was not analyzed (FIG. 13 is number of mounts+intromissions), Ejaculation Latency: time (in seconds) taken from first intromission to ejaculation. A maximum time of 30 minutes (1800 seconds) was given, and the test terminated if ejaculation was not achieved in that time (FIG. 14), and Refractory Period: time (in seconds) taken from ejaculation to the first mount of the next series of sexual activity. In those animals reaching ejaculation the test was terminated at the end of the refractory period, as indicated by the first mount of the next sexual cycle (FIG. 15).
# A one-way ANOVA followed by Dunnett's t test was used to compare treated vs vehicle groups each day of testing, for all the sexual behaviour parameters. (*P<0.05, **P<0.01; n=15-16).
# [2] = tested on: sexual behaviour of sexually dysfunctional male rats; test: Sexual behaviour of fluoxetine-induced sexually dysfunctional male rats; type: in vivo, rat
# Protocol: Sprague Dawley male rats (Charles River, UK) were kept, 4 rats per cage, in a reversed lighting regime (12:12 hours, lights off at 5.00 h), with free access to food and water. The rats were pre-selected by being presented with a receptive female at 4 days intervals, i.e. every third day (having 2 clear days between presentations) until completing 6-7 trials of baseline determination. The animals showing consistently vigorous behaviour (ejaculatory latencies <300s) were chosen for further experiments. Animals were treated for 3 consecutive days with either vehicle (water) or fluoxetine (20 mg/kg, i.p., in a 2 ml/kg dosing volume). On the fourth day, the animals treated with water received vehicle (veh+veh) and the animals treated with fluoxetine received one of the three following treatments: Compound (1) (15 mg/kg, dissolved in 50% 2-hydroxypropyl-β-cyclodextrin in saline), vehicle (cyclodextrine), or yohimbine (2 mg/kg dissolved in water). All treatments were administered i.p. in a 1 ml/kg volume, 1 h before tests.
# For all the sexual behaviour tests, the males were placed in an observation arena (50-60 cm diameter), starting 5 hours into the dark cycle and observed under red illumination. Three to 4 minutes after placing the male in the arena, a receptive female (ovariectomised, bearing a 7 mm Silastic implant of oestradiol benzoate) was introduced to the arena and the following parameters noted: Mount Latency: time (in seconds) taken between introduction of female and first mount. A maximum time of 15 minutes (900 seconds) was allowed, and the test terminated if no mounts were recorded within that time (FIG. 16), Ejaculation Latency: time (in seconds) taken from first intromission to ejaculation. A maximum time of 30 minutes (1800 seconds) was given, and the test terminated if ejaculation was not achieved in that time (FIG. 17), Percentage of males achieving ejaculation within 30 minutes was calculated (FIG. 18).
# A one-way ANOVA followed by Dunnett's t test was used to compare the fluoxetine+vehicle group and other groups for mount and ejaculatory latencies. Percentage of animals ejaculating was analysed using a Chi-square test followed by Fisher's test. (*: P<0.05, **: P<0.01, ***: P<0.001; n=15-19).
# [3] = tested on: female rat sexual proceptivity (NMB-inhibited); test: Inhibition of female rat proceptivity by i.c.v. NMB and its antagonism; type: in vivo; conditions: progesterone 0.5 mg s.c. 4 h; NMB 100 ng i.c.v. 10 min before test in progesterone-treated rats; Compound (1) 15 mg/kg i.p. 1 h before NMB (FIG. 5)
# Protocol: Ovariectomised female rats (Sprague Dawley, obtained from Charles River, UK) were stereotaxically implanted (coordinates 0.89 mm behind Bregma, 1.3 mm lateral and 2.5 mm vertical) with stainless steel cannulae (6 mm long, O.D. 0.75 mm), held in place with dental cement. Animals were housed in groups of three and returned to a reversed lighting system of 12 h light:dark (lights off 5.00-17.00 h). Correct placement of the cannulae was assessed post-mortem. Rats were used for tests two weeks after ovariectomy (one week after cannulation). The experiments started at least 5 h into the dark period. Forty eight hours before tests, the animals were primed with 5 μg oestradiol benzoate (OB) (s.c, in corn oil) and adapted to the apparatus (in the absence of stimuli animals) for 10 min on 2 consecutive days prior testing. The 10 min test was carried out as previously described. The difference in the percentage of time spent investigating male minus female was calculated, out of the total time spent investigating stimuli.
# Progesterone (Prog, 0.5 mg/0.1 ml) was dissolved in corn oil and administered subcutaneously (s.c.), 4 h before test, to induce proceptive behaviour. Compound (1) (15 mg/kg, i.p.) was dissolved in 50% 2-hydroxypropyl-β-cyclodextrin in saline and administered 1 h before the i.c.v. administration. Neuromedin B was obtained from Bachem, UK. It was dissolved in isotonic saline and administered i.c.v. over a 30 sec period, with the aid of a pump set to deliver a flow of 10 μl/min, 10 min before tests. The dosing volume was 5 μl/rat. Each rat received a total amount of 100 ng.
# [4] = Plasma sexual hormone levels in ovariectomised female rats (radioimmunoassay); type: in vivo, rat; conditions: Compound (1) 3-10 mg/kg i.p. 1 h, progesterone 0.5 mg s.c. 4 h before blood collection
# Protocol: Ovariectomised adult female Sprague Dawley rats (180-200 g) were housed in groups of 6 in a reversed lighting system of 12 h light:dark (lights off 7.00-19.00 h). They were used for the experiments at least two weeks after ovariectomy. Forty eight hours before tests, the animals were primed with oestradiol benzoate (5 μg/0.1 ml in corn oil, s.c.). Progesterone (0.5 mg/0.1 ml, in corn oil, s.c.) was administered 4 h before blood collection, as a positive control. Compound (1) (3-10 mg/kg, i.p.) was administered in 50% 2-hydroxypropyl-β-cyclodextrin, 1 h prior to blood collection. Blood was collected from the trunk, after decapitation. It was immediately centrifuged (3500 r.p.m., 4° C., 5 min) and the plasmas frozen until assayed for hormonal content, using commercially available radioimmunoassay kits (^125I-labelled hormones) for oestradiol, progesterone, LH, FSH and prolactin.
# [5] = tested on: female rat sexual proceptivity; test: Female rat sexual proceptivity test (time investigating male vs female stimulus); type: in vivo; conditions: Compound (1) 15 mg/kg i.p. 1 h before test; progesterone 0.5 mg s.c. 4 h before test (FIG. 3)
# Protocol: Ovariectomised adult female Sprague Dawley rats (180-200 g, from Charles River) were housed in groups of 6 in a reversed lighting system of 12 h light:dark (lights off 7.00-19.00 h). Two weeks after ovariectomy they were used for sexual activity tests. The experiments started at least 5 h into the dark period.
# Tests were carried out in a circular arena of 90 cm diameter, surrounded by a 30 cm high wall. Two small cages with wire-mesh front (15×15 cm) are fixed into the wall such that the front of the cage is <> with the wall and the 2 cages are opposite each other. They contained two stimuli animals: an intact sexually experienced male and a receptive female (ovariectomised, primed with 5 μg oestradiol benzoate dissolved in corn oil and injected subcutaneously 48 hours before the test and with 0.5 mg of progesterone four hours before the test). Sexually naive test and control animals were used. Forty eight hours before the tests, both the test and control animals were primed with 5 μg oestradiol benzoate. For animals used as positive controls, progesterone (0.5 mg/0.1 ml) was dissolved in corn oil and administered subcutaneously (s.c.), 4 h before the test. Test and control animals were introduced one at a time for 10 minute periods into the arena. During the 10 min test, the time that the test or positive control animal spent investigating each stimulus animal was noted. The arena was thoroughly cleaned between animals. The position of the male/female stimuli boxes was randomised between animals, in order to avoid place preference. The difference in the percentage of time spent investigating the male minus the female stimuli was calculated, out of the total time spent investigating stimuli animals.
# Compound (1) was dissolved in 100% β-cyclodextrin and then diluted with saline to a final solution of 50% 2-hydroxypropyl-β-cyclodextrin. It was administered intraperitoneally (i.p.) at doses of 3 and 10 mg/kg, in a dosing volume of 1 ml/kg, 1 h before tests. Progesterone (0.5 mg/0.1 ml) was dissolved in corn oil and administered subcutaneously (s.c.), 4 h before test, as a positive control.
# Ovariectomised adult female Sprague Dawley rats (180-200 g) were housed in groups of 5 in a reversed lighting system of 12 h light:dark (lights off 5.00-17.00 h). They were used for the experiments at least two weeks after ovariectomy. Forty eight hours before tests, the animals were primed with oestradiol benzoate (5 μg/[…] in corn oil, s.c.). On day 1, progesterone (0.5 mg/0.1 ml, in corn oil, s.c.) was administered to one of the groups 4 h before tests, as a positive control. Compound (1) (15 mg/kg, i.p.) was administered in 50% 2-hydroxypropyl-β-cyclodextrin, 1 h before tests. The test lasted 10 minutes and was carried out as described before. The difference in the percentage of time spent investigating the male minus the female stimuli was calculated, out of the total time spent investigating stimuli animals. Animals were submitted to a test on day 1 and on day 15. From day 2 to 14 the Compound (1) group received a daily injection of the compound (15 mg/kg, i.p.), while both the vehicle and the progesterone groups received an injection of vehicle. On day 15 the test took place again, as described for day 1.
# Ovariectomised female rats (Sprague Dawley, obtained from Charles River, UK) were stereotaxically implanted (coordinates 0.89 mm behind Bregma, 1.3 mm lateral and 2.5 mm vertical) with stainless steel cannulae (6 mm long, O.D. 0.75 mm), held in place with dental cement. Animals were housed in groups of three and returned to a reversed lighting system of 12 h light:dark (lights off 5.00-17.00 h). Correct placement of the cannulae was assessed post-mortem. Rats were used for tests two weeks after ovariectomy (one week after cannulation). The experiments started at least 5 h into the dark period. […]
# [6] = fluoxetine 20 mg/kg i.p. for 3 consecutive days, vs vehicle+vehicle group
compound,measurement,setting,value
"CNCCC(Oc1ccc(C(F)(F)F)cc1)c1ccccc1 (stereo not shown) [Fluoxetine, reference compound]",Mount Latency,[1]; vs vehicle (FIG. 11),significantly increased
same,Intromission Latency,[1]; vs vehicle (FIG. 12),significantly increased
same,number of mounts and intromissions required to achieve ejaculation,[1]; vs vehicle (FIG. 13),No changes
same,Ejaculation Latency,[1]; vs vehicle (FIG. 14),also increased
same,Refractory Period,[1]; vs vehicle (FIG. 15),also increased
same,Ejaculation Latency,[2]; [6],significantly increased
same,Mount Latency,[2]; [6],significantly increased
same,number of animals ejaculating,[2]; [6],significantly lower
"COC(=O)[C@@H]1[C@H]2C[C@H]3c4[nH]c5ccccc5c4CCN3C[C@@H]2CC[C@@H]1O [Yohimbine, yohimbine]",Mount Latency,"[2]; fluoxetine-pretreated rats, Compound (1) 15 mg/kg or yohimbine 2 mg/kg i.p. 1 h before test, vs fluoxetine+vehicle (FIG. 16)","followed a similar trend, although this did not reach significance"
same,Ejaculation Latency,"[2]; fluoxetine-pretreated rats, Compound (1) 15 mg/kg or yohimbine 2 mg/kg i.p. 1 h before test, vs fluoxetine+vehicle (FIG. 17)","followed a similar trend, although this did not reach significance"
same,percentage of animals ejaculating,"[2]; fluoxetine-pretreated rats, Compound (1) 15 mg/kg or yohimbine 2 mg/kg i.p. 1 h before test, vs fluoxetine+vehicle (FIG. 18)","followed a similar trend, although this did not reach significance"
"CC(=O)[C@H]1CC[C@H]2[C@@H]3CCC4=CC(=O)CC[C@]4(C)[C@H]3CC[C@]12C [progesterone, reference compound]",proceptivity (percentage of time investigating male minus female stimulus),[3],increased the percentage of time spent investigating the male stimulus
same,plasma levels of progesterone,[4]; vs vehicle (FIG. 6),significant increase in the progesterone plasma levels
same,plasma levels of LH,[4]; vs vehicle (FIG. 9),significant decrease in LH plasma levels
same,proceptivity on day 1 vs vehicle,[5],stimulatory effect on proceptivity
neuromedin B [NMB],proceptivity (percentage of time investigating male minus female stimulus),[3],significantly reduced proceptivity
